What follows are compounds tested against EGFR (human) (UniProt P00533). Conditions: a431.
EGFR (human), sequence (P00533 whole entry, looked up): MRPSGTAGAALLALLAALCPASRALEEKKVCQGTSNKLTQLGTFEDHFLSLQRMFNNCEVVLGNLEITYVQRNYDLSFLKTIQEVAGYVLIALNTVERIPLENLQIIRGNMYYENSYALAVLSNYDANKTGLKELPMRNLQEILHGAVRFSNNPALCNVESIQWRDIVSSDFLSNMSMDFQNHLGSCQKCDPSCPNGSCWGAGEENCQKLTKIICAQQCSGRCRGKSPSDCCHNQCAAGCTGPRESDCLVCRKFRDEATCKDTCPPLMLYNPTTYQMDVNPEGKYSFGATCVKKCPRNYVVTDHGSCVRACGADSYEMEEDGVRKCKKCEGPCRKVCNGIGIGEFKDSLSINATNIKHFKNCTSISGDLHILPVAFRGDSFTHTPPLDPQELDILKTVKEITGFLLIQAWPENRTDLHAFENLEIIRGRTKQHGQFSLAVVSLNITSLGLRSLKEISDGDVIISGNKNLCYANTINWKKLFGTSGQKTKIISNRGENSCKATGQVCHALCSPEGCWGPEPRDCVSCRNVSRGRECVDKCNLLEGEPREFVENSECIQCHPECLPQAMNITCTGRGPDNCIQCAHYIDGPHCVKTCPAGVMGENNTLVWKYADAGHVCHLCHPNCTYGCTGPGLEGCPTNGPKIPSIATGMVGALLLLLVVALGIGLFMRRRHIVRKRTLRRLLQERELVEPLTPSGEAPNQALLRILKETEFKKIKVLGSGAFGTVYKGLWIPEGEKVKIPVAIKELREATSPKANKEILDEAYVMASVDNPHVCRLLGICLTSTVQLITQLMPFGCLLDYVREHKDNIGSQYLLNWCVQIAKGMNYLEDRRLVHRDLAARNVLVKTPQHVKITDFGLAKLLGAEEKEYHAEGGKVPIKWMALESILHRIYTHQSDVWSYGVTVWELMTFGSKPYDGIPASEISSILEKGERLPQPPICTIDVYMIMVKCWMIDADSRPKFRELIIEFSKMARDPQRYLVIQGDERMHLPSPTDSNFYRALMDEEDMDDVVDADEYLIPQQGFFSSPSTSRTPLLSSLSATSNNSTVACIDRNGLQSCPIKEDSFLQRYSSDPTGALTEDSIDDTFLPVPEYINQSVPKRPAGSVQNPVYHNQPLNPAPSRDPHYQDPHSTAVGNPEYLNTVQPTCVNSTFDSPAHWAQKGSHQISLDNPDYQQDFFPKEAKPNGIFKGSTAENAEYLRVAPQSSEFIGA

Point of comparison: `Nc1nc(Nc2cccc(Br)c2)c2ccn(Cc3ccc(Cl)c(Cl)c3)c2n1`, IC50 19.2 µM. Against it:
- Nc1nc(Nc2cccc(Br)c2)c2ccn(Cc3ccccc3Cl)c2n1 — 4.6-fold higher, 88.4 µM
- Cc1ccccc1Cn1ccc2c(Nc3cccc(Br)c3)nc(N)nc21 — within 1.5-fold, 15.7 µM
- Nc1nc(Nc2cccc(Br)c2)c2ccn(Cc3ccc(-c4ccccc4)cc3)c2n1 — within 1.5-fold, 13.3 µM
- Nc1nc(Nc2cccc(Br)c2)c2ccn(Cc3ccc4ccccc4c3)c2n1 — within 1.5-fold, 20.4 µM
- Nc1nc(Nc2cccc(Br)c2)c2ccn(Cc3ccc(Cl)cc3)c2n1 — within 1.5-fold, 16.1 µM
- Nc1nc(Nc2cccc(Br)c2)c2ccn(Cc3cccc4ccccc34)c2n1 — 1.9-fold higher, 36.3 µM
- COc1cc(Cn2ccc3c(Nc4cccc(Br)c4)nc(N)nc32)cc(OC)c1OC — 2-fold higher, 39 µM
- Nc1nc(Nc2cccc(Br)c2)c2ccn(Cc3ccc(Cl)cc3Cl)c2n1 — within 1.5-fold, 15.3 µM
- COc1ccc(OC)c(Cn2ccc3c(Nc4cccc(Br)c4)nc(N)nc32)c1 — 2.1-fold higher, 40.6 µM
- Nc1nc(Nc2cccc(Br)c2)c2ccn(Cc3ccccc3)c2n1 — 2.6-fold higher, 50.4 µM
